Results taken from patent US20060069132A1, “Azolecarboxamide herbicides” (priority 2004, published 2006).
Read-outs that look alike come from different tables or passages of the source.

Tests used:
pigweed = test: Test C pre-/postemergence herbicide test; assay type: in vivo, Amaranthus retroflexus
From the text: (§1) Seeds of plant species selected from bermudagrass (Cynodon dactylon (L.) Pers.), Surinam grass (Urochloa decumbens (Staph) R. D. Webster, previously named Brachiaria decumbens Stapf), cocklebur (Xanthium strumarium L.), corn (Zea mays L.), large crabgrass (Digitaria sanguinalis (L.) Scop.), woolly cupgrass (Eriochloa villosa (Thunb.) Kunth), giant foxtail (Setaria faberi Herrm.), goosegrass (Eleusine indica (L.) Gaertn.), johnsongrass (Sorghum halepense (L.) Pers.), kochia (Kochia scoparia (L.) Schrad.), lambsquarters (Chenopodium album L.), morningglory (Ipomoea coccinea L.), eastern black nightshade (Solanum ptycanthum Dunal), yellow nutsedge (Cyperus esculentus L.), pigweed (Amaranthus retroflexus L.), common ragweed (Ambrosia elatior L.), soybean (Glycine max (L.) Merr.), common (oilseed) sunflower (Helianthus annuus L.) and velvetleaf (Abutilon theophrasti Medik.) were planted and treated preemergence with test chemicals formulated in a non-phytotoxic solvent mixture which included a surfactant.
(§2) At the same time, plants selected from these crop and weed species and also winter barley (Hordeum vulgare L.), blackgrass (Alopecurus myosuroides Huds.), canarygrass (Phalaris minor Retz.), chickweed (Stellaria media (L.) Vill.), downy bromegrass (Bromus tectorum L.), green foxtail (Setaria viridis (L.) Beauv.), Italian ryegrass (Lolium multiflorum Lam.), wheat (Triticum aestivum L.), wild oat (Avenafatua L.) and windgrass (Apera spica-venti (L.) Beauv.) were treated with postemergence applications of some of the test chemicals formulated in the same manner. Plants ranged in height from 2 to 18 cm (1- to 4-leaf stage) for postemergence treatments. Plant species in the flooded paddy test consisted of rice (Oryza sativa), smallflower umbrella sedge (Cyperus difformis L.), ducksalad (Heteranthera limosa (Sw.) Willd.) and barnyardgrass (Echinochloa crus-galli (L.) Beauv.) grown to the 2-leaf stage for testing. Treated plants and controls were maintained in a greenhouse for 12 to 14 days, after which time all species were compared to controls and visually evaluated. Plant response ratings, summarized in Table C, are based on a scale of 0 to 100 where 0 is no effect and 100 is complete control. A dash (-) response means no test result.

goosegrass = test: Test C pre-/postemergence herbicide test; assay type: in vivo, Eleusine indica
From the text: as §1, §2

giant foxtail = test: Test C pre-/postemergence herbicide test; assay type: in vivo, Setaria faberi
From the text: as §1, §2

lambsquarters = test: Test C pre-/postemergence herbicide test; assay type: in vivo, Chenopodium album
From the text: as §1, §2

rice = test: Test C flooded paddy test; assay type: in vivo, Oryza sativa; conditions: for Plant response rating, Rice: 500 g ai/ha, visual rating after 12 to 14 days
Summary of the method: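 Injury scored visually against controls on a 0 (no effect) to 100 (complete control) scale, 12 to 14 days after treatment in greenhouse. Flooded paddy plants treated at 2-leaf stage; postemergence plants at 1- to 4-leaf stage, 2 to 18 cm tall.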

barnyardgrass = test: Test C flooded paddy test; assay type: in vivo, Echinochloa crus-galli; conditions: for Plant response rating, Barnyardgrass: 500 g ai/ha, visual rating after 12 to 14 days
Summary of the method: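 Weeds and wheat were sprayed after emergence, at a height of 2 to 18 cm (1–4 leaves), and paddy barnyardgrass was flooded and treated at two leaves. Assessment took place 12–14 days later in the greenhouse on a 0-to-100 visual control scale. A dash means no result was obtained.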

redroot pigweed = test: Test A pre-/postemergence herbicide test; assay type: in vivo, Amaranthus retroflexus; conditions: for pest or weed control at 125 g/ha / pest or weed control at 500 g/ha: Amaranthus retroflexus, 240 h, read-out: Pigweed plant response rating; for pest or weed control at 125 g/ha: 125 g ai/ha
Summary of the method: (§3)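 Plants are held in greenhouse about ten days after treatment, then compared with untreated controls and scored 0 (no effect) to 100 (complete control). Preemergence dosing is a directed soil spray on sown sandy loam; postemergence dosing is spray to runoff at 2–10 cm height.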

large crabgrass = test: Test A pre-/postemergence herbicide test; assay type: in vivo, Digitaria sanguinalis; conditions: for pest or weed control at 125 g/ha / pest or weed control at 500 g/ha: Digitaria sanguinalis, 240 h, read-out: Crabgrass, Large plant response rating; for pest or weed control at 125 g/ha: 125 g ai/ha
Summary of the method: as §3

[1] = 62 g ai/ha, preemergence, scale 0 to 100
[2] = 250 g ai/ha, scale 0-100, preemergence
[3] = 500 g ai/ha, scale 0 to 100 (0 no effect, 100 complete control), visual, 12 to 14 days, preemergence
[4] = 125 g ai/ha, scale 0 to 100 (0 no effect, 100 complete control)
[5] = 250 g ai/ha, scale of 0 to 100, 0 is no effect, 100 is complete control
[6] = scale 0 to 100 (0 no effect, 100 complete control)
[7] = 62 g ai/ha, scale 0 to 100 (0 no effect, 100 complete control)
[8] = Postemergence, 500 g ai/ha, 0 to 100 scale, 0 no effect, 100 complete control
[9] = Postemergence, 2000 g ai/ha, 0 to 100 scale, 0 no effect, 100 complete control
[10] = Preemergence, 2000 g ai/ha, visual rating, 0 to 100 scale (0 no effect, 100 complete control)
[11] = 125 g ai/ha, scale 0 (no effect) to 100 (complete control), visual, 12 to 14 days, preemergence
[12] = postemergence, 62 g ai/ha, scale 0 to 100
[13] = Postemergence, 250 g ai/ha, scale 0 to 100, 0 no effect, 100 complete control
[14] = postemergence, 125 g ai/ha, scale 0 to 100
[15] = post-emergence, Postemergence, 0 to 100 scale, 0 no effect, 100 complete control
[16] = post-emergence, Postemergence, 500 g ai/ha, 0 to 100 scale, 0 no effect, 100 complete control
[17] = pre-emergence, preemergence, visual injury, 0 to 100 scale (0 no effect, 100 complete control)
[18] = pre-emergence, preemergence, 500 g ai/ha, visual injury, 0 to 100 scale (0 no effect, 100 complete control)

CCC1=NN(C(C)(C)C)CC1C(=O)Nc1cc(C(=O)N(C)C)ccc1F (racemic) [Compound 343]
Plant response rating, Pigweed (pigweed; [1]): 80 | Plant response rating (0 = no effect, 100 = complete control), Pigweed (pigweed; 125 g ai/ha, preemergence): 90 | Plant response rating, Pigweed (pigweed; [2]): 100 | Plant response rating, Pigweed (pigweed; [3]): 100 | Plant response rating, Goosegrass (goosegrass; [1]): 60 | Plant response rating (0 = no effect, 100 = complete control), Goosegrass (goosegrass; 125 g ai/ha, preemergence): 75 | Plant response rating, Goosegrass (goosegrass; [2]): 80 | Plant response rating, Goosegrass (goosegrass; [3]): 85 | Plant response rating, Foxtail, Giant (giant foxtail; [1]): 40 | Plant response rating (0 = no effect, 100 = complete control), Foxtail, Giant (giant foxtail; 125 g ai/ha, preemergence): 50 | Plant response rating, Foxtail, Giant (giant foxtail; [2]): 70 | Plant response rating, Foxtail, Giant (giant foxtail; [3]): 80 | Plant response rating, Lambsquarters (lambsquarters; [1]): 100 | Plant response rating (0 = no effect, 100 = complete control), Lambsquarters (lambsquarters; 125 g ai/ha, preemergence): 100 | Plant response rating, Lambsquarters (lambsquarters; [2]): 100 | Plant response rating, Lambsquarters (lambsquarters; [3]): 100 | Rice plant response rating (rice; 62 g ai/ha, scale 0 to 100): 20 | Rice plant response rating (rice; [4]): 50 | Rice plant response rating (rice; [5]): 70 | Plant response rating, Rice (rice; [6]): 80 | Barnyardgrass plant response rating (barnyardgrass; [7]): 20 | Barnyardgrass plant response rating (barnyardgrass; [4]): 20 | Barnyardgrass plant response rating (barnyardgrass; [5]): 60 | Plant response rating, Barnyardgrass (barnyardgrass; [6]): 80

C=Cn1nc(C(C)(C)C)cc1C(=O)Nc1cccc(C(C)=O)c1 [Compound 127]
Pigweed plant response rating (redroot pigweed; [8]): 40 | Plant response rating, Pigweed (redroot pigweed; [9]): 50 | Pigweed plant response rating (redroot pigweed; [10]): 50 | Pigweed plant response rating (redroot pigweed; preemergence, 500 g ai/ha, visual injury, 0 to 100 scale (0 no effect, 100 complete control)): 40 | Crabgrass, Large plant response rating (large crabgrass; [8]): 15 | Plant response rating, Crabgrass, Large (large crabgrass; [9]): 35 | Crabgrass, Large plant response rating (large crabgrass; Preemergence, 500 g ai/ha, visual rating, 0 to 100 scale (0 no effect, 100 complete control)): 75 | Crabgrass, Large plant response rating (large crabgrass; [10]): 85 | Rice plant response rating (rice; [7]): 20 | Rice plant response rating (rice; [4]): 25 | Rice plant response rating (rice; [5]): 25 | Plant response rating, Rice (rice; [6]): 25 | Barnyardgrass plant response rating (barnyardgrass; [7]): 20 | Barnyardgrass plant response rating (barnyardgrass; 125 g ai/ha, scale of 0 to 100, 0 is no effect, 100 is complete control): 30 | Barnyardgrass plant response rating (barnyardgrass; [5]): 30 | Plant response rating, Barnyardgrass (barnyardgrass; [6]): 55

CCn1nc(C(C)(C)C)cc1C(=O)Nc1cc(C(=S)N(C)C)ccn1 [Compound 334]
Plant response rating, Pigweed (pigweed; [1]): 100 | Plant response rating, Pigweed (pigweed; [11]): 100 | Plant response rating, Pigweed (pigweed; [2]): 100 | Plant response rating, Goosegrass (goosegrass; [1]): 100 | Plant response rating, Goosegrass (goosegrass; [11]): 100 | Plant response rating, Goosegrass (goosegrass; [2]): 100 | Plant response rating, Foxtail, Giant (giant foxtail; [1]): 60 | Plant response rating, Foxtail, Giant (giant foxtail; [11]): 80 | Plant response rating, Foxtail, Giant (giant foxtail; [2]): 100 | Plant response rating, Lambsquarters (lambsquarters; [1]): 100 | Plant response rating, Lambsquarters (lambsquarters; [11]): 100 | Plant response rating, Lambsquarters (lambsquarters; [2]): 100 | Rice plant response rating (rice; 62 g ai/ha, scale 0 to 100): 70 | Rice plant response rating (rice; [4]): 75 | Rice plant response rating (rice; [5]): 80 | Plant response rating, Rice (rice; [6]): 85 | Barnyardgrass plant response rating (barnyardgrass; [7]): 70 | Barnyardgrass plant response rating (barnyardgrass; [4]): 90 | Barnyardgrass plant response rating (barnyardgrass; [5]): 95 | Plant response rating, Barnyardgrass (barnyardgrass; [6]): 95

CCNC(=O)c1ccc(F)c(NC(=O)c2c3c(nn2CC)C(C)(C)CC3)c1 [Compound 353]
Rice plant response rating (rice; 62 g ai/ha, scale 0 to 100): 0 | Rice plant response rating (rice; [4]): 0 | Rice plant response rating (rice; [5]): 20 | Plant response rating, Rice (rice; [6]): 40 | Barnyardgrass plant response rating (barnyardgrass; [7]): 0 | Barnyardgrass plant response rating (barnyardgrass; [4]): 0 | Barnyardgrass plant response rating (barnyardgrass; [5]): 20 | Plant response rating, Barnyardgrass (barnyardgrass; [6]): 20

CCOC(=O)c1cccc(NC(=O)c2nn(C(C)(C)CC)nc2CC)c1 [Compound 375]
Plant response rating, Pigweed (pigweed; [1]): 50 | Plant response rating (0 = no effect, 100 = complete control), Pigweed (pigweed; 125 g ai/ha, preemergence): 50 | Plant response rating, Pigweed (pigweed; [2]): 100 | Plant response rating, Pigweed (pigweed; [12]): 80 | Plant response rating, Goosegrass (goosegrass; [1]): 60 | Plant response rating (0 = no effect, 100 = complete control), Goosegrass (goosegrass; 125 g ai/ha, preemergence): 100 | Plant response rating, Goosegrass (goosegrass; [2]): 100 | Plant response rating, Goosegrass (goosegrass; [13]): 50 | Plant response rating, Goosegrass (goosegrass; [14]): 15 | Plant response rating, Goosegrass (goosegrass; [12]): 15 | Plant response rating, Foxtail, Giant (giant foxtail; [1]): 70 | Plant response rating (0 = no effect, 100 = complete control), Foxtail, Giant (giant foxtail; 125 g ai/ha, preemergence): 80 | Plant response rating, Foxtail, Giant (giant foxtail; [13]): 60 | Plant response rating, Foxtail, Giant (giant foxtail; [14]): 45 | Plant response rating, Foxtail, Giant (giant foxtail; [12]): 40 | Plant response rating, Lambsquarters (lambsquarters; [1]): 5 | Plant response rating (0 = no effect, 100 = complete control), Lambsquarters (lambsquarters; 125 g ai/ha, preemergence): 10 | Plant response rating, Lambsquarters (lambsquarters; [2]): 90 | Plant response rating, Lambsquarters (lambsquarters; [14]): 40 | Plant response rating, Lambsquarters (lambsquarters; [12]): 10

C=CCNC(=O)c1cccc(NC(=O)c2nn(C(C)(C)C)nc2CC)c1 [Compound 414]
Plant response rating, Pigweed (pigweed; [1]): 100 | Plant response rating (0 = no effect, 100 = complete control), Pigweed (pigweed; 125 g ai/ha, preemergence): 100 | Plant response rating, Pigweed (pigweed; [3]): 100 | Plant response rating, Goosegrass (goosegrass; [1]): 95 | Plant response rating (0 = no effect, 100 = complete control), Goosegrass (goosegrass; 125 g ai/ha, preemergence): 100 | Plant response rating, Goosegrass (goosegrass; [2]): 100 | Plant response rating, Goosegrass (goosegrass; [3]): 100 | Plant response rating, Foxtail, Giant (giant foxtail; [1]): 75 | Plant response rating (0 = no effect, 100 = complete control), Foxtail, Giant (giant foxtail; 125 g ai/ha, preemergence): 95 | Plant response rating, Foxtail, Giant (giant foxtail; [2]): 100 | Plant response rating, Foxtail, Giant (giant foxtail; [3]): 100 | Plant response rating, Lambsquarters (lambsquarters; [1]): 95 | Plant response rating (0 = no effect, 100 = complete control), Lambsquarters (lambsquarters; 125 g ai/ha, preemergence): 95 | Plant response rating, Lambsquarters (lambsquarters; [2]): 95 | Plant response rating, Lambsquarters (lambsquarters; [3]): 100

CCNC(=O)c1cccc(NC(=O)c2nc(C(C)(C)C)nn2CC)c1 [Compound 446, 3-(1,1-dimethylethyl)-1-ethyl-N-[3-[(ethylamino)carbonyl]phenyl]-1H-1,2,4-triazole-5-carboxamide]
pest or weed control at 125 g/ha (redroot pigweed; [15]): 65% | pest or weed control at 500 g/ha (redroot pigweed; [16]): 80% | pest or weed control at 125 g/ha (redroot pigweed; [17]): 90% | pest or weed control at 500 g/ha (redroot pigweed; [18]): 100% | pest or weed control at 125 g/ha (large crabgrass; [15]): 45% | pest or weed control at 500 g/ha (large crabgrass; [16]): 65% | pest or weed control at 125 g/ha (large crabgrass; [17]): 10% | pest or weed control at 500 g/ha (large crabgrass; [18]): 40%
